Values after ≈ are worked out from the molar mass of the structure shown.
What was measured:
Experiment in all cases: in vitro antibacterial evaluation, MIC by broth dilution
Format in all cases: cell-based
Enterococcus sp. = settings: broth dilution, 18 hours at 35° C.
Summary of the method: (§1)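 MIC, the lowest antibiotic concentration preventing growth, was read across 64-0.06 μg/mL with 5×10^5 CFU/mL inoculum. Method followed NCCLS M7-A2 broth dilution using Mueller-Hinton II; Gram-positive strains covered recent methicillin-, penicillin- and/or vancomycin-resistant clinical isolates.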

Streptococcus sp. = settings: broth dilution, 18 hours at 35° C.
Summary of the method: as §1

Staphylococcus sp. = settings: broth dilution, 18 hours at 35° C.
Summary of the method: as §1

Escherichia coli = settings: 18 hours at 35° C.
Summary of the method: as §1

## CC(c1ccccc1)C1NC(=O)CNC(=O)C(CO)NC(=O)C(C(O)C2CNC(=N)N2C2OC(CO)C(O)C(O)C2O)NC(=O)C(C(O)C2CNC(=N)N2)NC(=O)C(Cc2ccc(OC3OC(CO)C(OC4OC5COC(Cc6ccc(Br)cc6)OC5C(O)C4O)C(O)C3O)cc2)NC1=O (stereo not drawn) [Example 118, Cyclo[glycyl-β-methylphenylalanyl-O-[4-O-[4,6-O-(4-bromophenethylidene)hexopyranosyl]-hexopyranosyl]tyrosyl-3-(2-iminoimidazolidin-4-yl)seryl-3-(3-hexopyranosyl-2-iminoimidazolidin-4-yl)serylseryl]]
Enterococcus sp.; Enterococcus avium (GC 4558)
  MIC Enterococcus avium (GC 4558): 1 to 2 µg/mL
Enterococcus sp.; Enterococcus faecalis (ATCC 29212)
  MIC Enterococcus faecalis (ATCC 29212): 1 to 2 µg/mL
Enterococcus sp.; Enterococcus faecalis (GC 2242)
  MIC Enterococcus faecalis (GC 2242): <0.5 to 2 µg/mL
Enterococcus sp.; Enterococcus faecalis (GC 2691)
  MIC Enterococcus faecalis (GC 2691): 1 to 2 µg/mL
Enterococcus sp.; Enterococcus faecalis (GC 3059)
  MIC Enterococcus faecalis (GC 3059): 1 to 2 µg/mL
Enterococcus sp.; Enterococcus faecalis (GC 4552)
  MIC Enterococcus faecalis (GC 4552): 1 to 2 µg/mL
Enterococcus sp.; Enterococcus faecalis (GC 4553)
  MIC Enterococcus faecalis (GC 4553): 1 to 2 µg/mL
Enterococcus sp.; Enterococcus faecalis (GC 4554)
  MIC Enterococcus faecalis (GC 4554): 1 to 2 µg/mL
Enterococcus sp.; Enterococcus faecalis (GC 6189)
  MIC Enterococcus faecalis (GC 6189): 1 to 2 µg/mL
Enterococcus sp.; Enterococcus faecium (GC 2243)
  MIC Enterococcus faecium (GC 2243): 1 µg/mL (≈ 0.677 µM)
Enterococcus sp.; Enterococcus faecium (GC 4556)
  MIC Enterococcus faecium (GC 4556): <0.5 to 1 µg/mL
Enterococcus sp.; Enterococcus faecium (GC 4557)
  MIC Enterococcus faecium (GC 4557): <0.5 to 2 µg/mL
Enterococcus sp.; strain ATCC 29212
  MIC Enterococcus faecalis (ATCC 29212): 1 to 2 µg/mL
Enterococcus sp.; strain GC 2242
  MIC Enterococcus faecalis (GC 2242): <0.5 to 2 µg/mL
Enterococcus sp.; strain GC 2243
  MIC Enterococcus faecium (GC 2243): 1 µg/mL (≈ 0.677 µM)
Enterococcus sp.; strain GC 2691
  MIC Enterococcus faecalis (GC 2691): 1 to 2 µg/mL
Enterococcus sp.; strain GC 3059
  MIC Enterococcus faecalis (GC 3059): 1 to 2 µg/mL
Enterococcus sp.; strain GC 4552
  MIC Enterococcus faecalis (GC 4552): 1 to 2 µg/mL
Enterococcus sp.; strain GC 4553
  MIC Enterococcus faecalis (GC 4553): 1 to 2 µg/mL
Enterococcus sp.; strain GC 4554
  MIC Enterococcus faecalis (GC 4554): 1 to 2 µg/mL
Enterococcus sp.; strain GC 4556
  MIC Enterococcus faecium (GC 4556): <0.5 to 1 µg/mL
Enterococcus sp.; strain GC 4557
  MIC Enterococcus faecium (GC 4557): <0.5 to 2 µg/mL
Enterococcus sp.; strain GC 4558
  MIC Enterococcus avium (GC 4558): 1 to 2 µg/mL
Enterococcus sp.; strain GC 6189
  MIC Enterococcus faecalis (GC 6189): 1 to 2 µg/mL
Streptococcus sp.; Streptococcus agalactiae (GC 4564)
  MIC Streptococcus agalactiae (GC 4564): <0.06 µg/mL
Streptococcus sp.; Streptococcus pneumoniae (ATCC 6301)
  MIC Streptococcus pneumoniae (ATCC 6301): <0.06 µg/mL
Streptococcus sp.; Streptococcus pneumoniae (GC 1894)
  MIC Streptococcus pneumoniae (GC 1894): <0.06 µg/mL
Streptococcus sp.; Streptococcus pneumoniae (GC 4565)
  MIC Streptococcus pneumoniae (GC 4565): <0.06 µg/mL
Streptococcus sp.; Streptococcus pyogenes (GC 4563)
  MIC Streptococcus pyogenes (GC 4563): <0.06 µg/mL
Streptococcus sp.; strain ATCC 6301
  MIC Streptococcus pneumoniae (ATCC 6301): <0.06 µg/mL
Streptococcus sp.; strain GC 1894
  MIC Streptococcus pneumoniae (GC 1894): <0.06 µg/mL
Streptococcus sp.; strain GC 4563
  MIC Streptococcus pyogenes (GC 4563): <0.06 µg/mL
Streptococcus sp.; strain GC 4564
  MIC Streptococcus agalactiae (GC 4564): <0.06 µg/mL
Streptococcus sp.; strain GC 4565
  MIC Streptococcus pneumoniae (GC 4565): <0.06 µg/mL
Staphylococcus sp.
  MIC Coagulase Negative Staphylococcus (GC 4547): <0.5 to 1 µg/mL
  MIC Coagulase Negative Staphylococcus (GC 4548): 0.25-0.25 μg/mL
  MIC Coagulase Negative Staphylococcus (GC 4551): <0.5 to 1 µg/mL
  MIC Coagulase Negative Staphylococcus (GC 6257): 0.25-0.25 μg/mL
  MIC Staphylococcus aureus (ATCC 29213): <0.5 to 1 µg/mL
  MIC Staphylococcus aureus (GC 1131): <0.5 to 1 µg/mL
  MIC Staphylococcus aureus (GC 3051): <0.5 to 1 µg/mL
  MIC Staphylococcus aureus (GC 3053): 1 µg/mL (≈ 0.677 µM)
  MIC Staphylococcus aureus (GC 4541): <0.5 to 1 µg/mL
  MIC Staphylococcus aureus (GC 4542): <0.5 to 1 µg/mL
  MIC Staphylococcus aureus (GC 4544): <0.5 to 1 µg/mL
  MIC Staphylococcus aureus (GC 4545): <0.5 to 1 µg/mL
  MIC Staphylococcus aureus-SMITH (GC 4543): <0.5 to 1 µg/mL
Staphylococcus sp.; inoculum 5×10^5 CFU/mL, strain GC 1131
  MIC Staphylococcus aureus (GC 1131): <0.5 to 1 µg/mL
Staphylococcus sp.; strain ATCC 29213
  MIC Staphylococcus aureus (ATCC 29213): <0.5 to 1 µg/mL
Staphylococcus sp.; strain GC 3051
  MIC Staphylococcus aureus (GC 3051): <0.5 to 1 µg/mL
Staphylococcus sp.; strain GC 3053
  MIC Staphylococcus aureus (GC 3053): 1 µg/mL (≈ 0.677 µM)
Staphylococcus sp.; strain GC 4541
  MIC Staphylococcus aureus (GC 4541): <0.5 to 1 µg/mL
Staphylococcus sp.; strain GC 4542
  MIC Staphylococcus aureus (GC 4542): <0.5 to 1 µg/mL
Staphylococcus sp.; strain GC 4544
  MIC Staphylococcus aureus (GC 4544): <0.5 to 1 µg/mL
Staphylococcus sp.; strain GC 4545
  MIC Staphylococcus aureus (GC 4545): <0.5 to 1 µg/mL
Staphylococcus sp.; strain GC 4547
  MIC Coagulase Negative Staphylococcus (GC 4547): <0.5 to 1 µg/mL
Staphylococcus sp.; strain GC 4548
  MIC Coagulase Negative Staphylococcus (GC 4548): 0.25-0.25 μg/mL
Staphylococcus sp.; strain GC 4551
  MIC Coagulase Negative Staphylococcus (GC 4551): <0.5 to 1 µg/mL
Staphylococcus sp.; strain GC 6257
  MIC Coagulase Negative Staphylococcus (GC 6257): 0.25-0.25 μg/mL
Staphylococcus sp.; strain SMITH GC 4543
  MIC Staphylococcus aureus-SMITH (GC 4543): <0.5 to 1 µg/mL
Escherichia coli; strain ATCC 25922
  MIC Escherichia coli (ATCC 25922): 16 to 32 µg/mL
Escherichia coli; strain GC 4559
  MIC Escherichia coli (GC 4559): 16 µg/mL (≈ 10.8 µM)
Escherichia coli; strain GC 4560
  MIC Escherichia coli (GC 4560): 1 µg/mL (≈ 0.677 µM)

From US6914045B2, “Glycopeptide antibiotics” (Wyeth Holdings Corporation, priority 2001, dated 2005)
